From patent US9238659B2, “Method of using binuclear gold (I) compounds for cancer treatment” (University of Hong Kong, priority 2012, dated 2016)

What was measured:
[1] = tested on: human nasopharyngeal carcinoma (SUNE1); test: MTT cytotoxicity assay, SUNE1; format: cell-based; conditions: 72 h of incubation
[2] = tested on: cervical epithelioid carcinoma (HeLa); test: MTT cytotoxicity assay, HeLa; format: cell-based, human; conditions: 72 h of incubation
[3] = tested on: hepatocellular carcinoma (HepG2); test: MTT cytotoxicity assay, HepG2; format: cell-based, human; conditions: 72 h of incubation
lung carcinoma (HCC827) = test: MTT cytotoxicity assay, HCC827; format: cell-based, human; conditions: 72 h of incubation
H1975 = test: MTT cytotoxicity assay, H1975; format: cell-based, human; conditions: 72 h of incubation
[4] = tested on: human nasopharyngeal carcinoma (HONE1); test: MTT cytotoxicity assay, HONE1; format: cell-based; conditions: 72 h of incubation
breast carcinoma (MCF-7) = test: MTT cytotoxicity assay, MCF-7; format: cell-based, human; conditions: 72 h of incubation
[5] = Reactivity towards physiological thiols (ESI-MS monitoring of reaction with GSH); format: physicochemical; conditions: GSH […]10^−5M or 5×10^−5M, about 45 min
Procedure: FIGS. 6A-C show stability tests: (A) UV/vis absorption of 1 in PBS (containing 5% acetonitrile, v/v) at different time point; (B) Linear response of ESI-MS intensity of 1 versus concentration; (C) Kinetics analysis of reaction of 1 with GSH, auranofin was used as a reference compound. Unreacted compound percentage was calculated by combined MS intensity of each 10 scans at different time point then divided by pre-determined MS intensity of initial concentration. It was believed that high reactivity of the gold(I) anticancer drugs towards physiological thiols may fail the drugs targeting to the solid tumor tissue thus hamper the application for in vivo cancer treatment. As a result, high resolution ESI-MS was applied to monitor the reaction of 1 with thiol-containing GSH.

Structure (SMILES)	IC50 [1]	IC50 [2]	IC50 [3]	IC50 (lung carcinoma (HCC827))	IC50 (H1975)	IC50 [4]	IC50 (breast carcinoma (MCF-7))	reaction towards GSH (reference compound) [5]
CCN(CC)C1=[S+][Au-][P+](c2ccccc2)(c2ccccc2)C[P+](c2ccccc2)(c2ccccc2)[Au-][S]1.O=S(=O)(O)C(F)(F)F [Compound 4, [Au2-dppm-dedt] (OTf)]	1620 ± 440 nM	630 nM	950 ± 580 nM	480 ± 60 nM	< 190 nM	590 ± 40 nM	500 ± 60 nM	–
CCN(CC)C1=[S+][Au-][P+](C2CCCCC2)(C2CCCCC2)C[P+](C2CCCCC2)(C2CCCCC2)[Au-][S]1.O=S(=O)(O)C(F)(F)F [Compound 3, [Au2-dcpm-dedt] (OTf)]	670 ± 280 nM	< 390 nM	540 ± 70 nM	–	–	410 ± 70 nM	410 ± 200 nM	–
CC(=O)OC[C@H]1O[C@@H]([S-])[C@H](OC(C)=O)[C@@H](OC(C)=O)[C@@H]1OC(C)=O.CCP(CC)CC.[Au+] [auranofin, reference compound]	–	–	–	–	–	–	–	fast reaction towards GSH
